{
  "source": "patent US7700352B2",
  "about": "“Composition for culturing mouse pluripotent stem cells” (Riken, priority 2002, dated 2010)",
  "key": {"[1]": {"test_system": "feeder cell-independent ES cells (E14tg2a, CGR8)", "experiment": "Formation of colonies of undifferentiated ES cells in medium free of serum and feeder cells (GMEM + LIF + 2-ME + KSR), Leischman staining", "type": "cell-based, mouse", "conditions": "for capability to form a colony of undifferentiated cells: peptide at 1 μM in medium with LIF + 2-ME + KSR; for relative potency of the colony-forming capability: comparison among candidate peptides / ACTH fragments", "experimental": "One hundred of the feeder cell-independent ES cells (E14tg2a (Hooper, M. et al., Nature, 325, 292 (1987)), CGR8 (Mountford, P. et al., Proc. Natl. Acad. Sci. USA, 91, 4303 (1994)), and ES cells derived therefrom) were incubated on the gelatinated 12-well plate treated with a 0.1% (w/v) gelatin solution at 37° C. in 5% CO2 in one ml of a culture medium of Glasgow minimum essential medium (GMEM; Sigma) used as a cell culture minimum medium supplemented with (1) 1×10^3 U/ml LIF (ESGRO, Invitrogen), (3) 0.1 μM 2-mercaptoethanol (Nacalai Tesque), and (5) 10% (v/v) KSR (Invitrogen) per well.\nFive days or more after the incubation, the supernatant was removed by aspiration, and then a Leischman staining liquid (1.5 g Leischman Staining: Sigma/L methanol) was added to the plate until the liquid covered all of the surface of the plate. The plate was left at room temperature for 10 minutes, and rinsed with water (Leischman staining). For the blue-stained colonies, no formation of colonies that maintained their morphology in an undifferentiated state was shown by the naked eye and light microscopy (FIG. 1 (g)). When the ES cells were incubated in a culture medium wherein the medium described above was supplemented with 0.3% (v/v) FCS (2), an average of 17 colonies of undifferentiated cells was observed (FIG. 1 (d)). […] Further, a formation of colonies of undifferentiated cells was observed when the ES cells were incubated at 1000 or more per well in the culture medium having the same composition ((1)+(3)+(5)). When the conditioned medium (CM) was added to a culture medium at a final concentration of 10% (v/v), and 100 ES cells per well were incubated therein, then an average of 7 colonies of undifferentiated cells was observed (FIG. 1 (f)).\nSubsequently, a candidate peptide that had been selected from diverse known growth factors, cytokines, peptide hormones and the like, was added to the culture medium comprising (1)+(3)+(5), and the ES cells were incubated therein at 37° C. in 5% CO2 so that a capability of the candidate to form a colony of undifferentiated cells was determined. […] It should be noted that FIG. 1 (a) to (c) show the results obtained from the medium consisting of GMEM, LIF and 2-ME, supplemented with FCS+feeder cells, KSR+feeder cells, and FCS, respectively.\nIn a similar manner to the above, ACTH and the fragments thereof were added to the culture medium at a final concentration of 1 μM wherein (1) LIF, (3) 2-ME, and (5) KSR were supplemented to a cell culture minimum medium.\nACHT has been known to activate an ACTH receptor belonging to G-protein-coupled receptor families, which receptor activates an adenylate cyclase activity through the activation of trimeric G proteins containing the Gα s subunit. Now, to a cell culture minimum medium supplemented with (1) 1×10^3 U/ml LIF, (3) 0.1 μM 2-ME, (5) 10% (v/v) KSR, and (6) 10 μM ACTH, an inhibitor of an adenylate cyclase activity, SQ22536 (9-(tetrahydro-2-furanyl)adenine) (Sigma) at 100 μM, was further added, and the resultant medium was used to culture the ES cells in a similar manner to that of Example 1.\nIn order to check the effect of sole SQ22536, a cell culture minimum medium supplemented with (1) 1×10^3 U/ml LIF, (3) 0.1 μM 2-ME, (5) 10% (v/v) KSR, and (7) SQ22536 100 μM was used to culture the ES cells in a similar manner to that of Example 1. As a result, an average of nine colonies of undifferentiated cells was observed. Further, even when the medium added with another inhibitor of an adenylate cyclase activity, 2′,5′-dideoxyadenosine (Sigma) 500 μM, was used, an average of eight colonies of undifferentiated cells was observed. […]"}, "[2]": {"test_system": "ES cells injected into the mouse blastocyst", "experiment": "Chimeric mouse production from ES cells injected into the mouse blastocyst (retention of pluripotency)", "type": "in vivo", "conditions": "ES cells cultured with 1 nM adrenocorticotropic hormone", "experimental": "The undifferentiated ES cells derived from the colonies obtained by the culture with 1 nM adrenocorticotropic hormone in Example 1 as described above were further subcultured twice, and the resultant cells were injected into the mouse blastocyst to complete the transplantation into the pseudopregnant mouse uterus."}, "[3]": {"test_system": "inner cell masses of C57BL/6 blastocysts", "experiment": "Establishment of ES cell lines from inner cell masses of blastocysts in serum-free, feeder-free medium", "type": "cell-based, mouse", "conditions": "10 μM ACTH, LIF, 2-ME, KSR, fibronectin-coated plate; thirty C57BL/6 embryos", "experimental": "Thirty embryos at blastocyst stage of 3.5 days old were removed from C57BL/6 inbred mouse strains, and the inner cell masses isolated from the embryos by immunosurgery were individually incubated in the culture medium consisting of CCMM, (1) 1×10^3 U/ml LIF, (3) 0.1 μM 2-ME, 0.1 mM non-essential amino acids, 1 mM sodium pyruvate, (5) 10% (v/v) KSR, and (6) 10 μM ACTH on a plate coated with fibronectin."}, "[4]": {"conditions": "10 μM ACTH (1-24), compared with 0.3% FCS or 10% CM"}, "[5]": {"conditions": "pertussis toxin 100 ng/ml added to medium with 10 μM ACTH"}, "[6]": {"conditions": "SQ22536 100 μM added to medium with 10 μM ACTH, 7th day"}},
  "note": "No end group written: not given here.",
  "data": [
    {"compound": "ACTH (11-24): fragment of ACTH, amino acids 11 to 24 (KPVGKKRRPVKVYP; Corticotropin; UniProt P01189 148-161, looked up, fragment)", "values": [
      {"measurement": "capability to form a colony of undifferentiated cells", "setting": "[1]", "result": "showed to have the capability"}
    ]},
    {"compound": "pituitary adenylate cyclase activating polypeptide (HSDGIFTDSYSRYRKQMAVKKYLAAVLGKRYKQRVKNK; ends and bridges not checked; UniProt P18509 132-169, looked up)", "values": [
      {"measurement": "capability to form a colony of undifferentiated cells", "setting": "[1]", "result": "formation of colonies of undifferentiated ES cells having the apparent morphology was observed"}
    ]},
    {"compound": "brain natriuretic peptide", "values": [
      {"measurement": "capability to form a colony of undifferentiated cells", "setting": "[1]", "result": "formation of colonies of undifferentiated ES cells having the apparent morphology was observed"}
    ]},
    {"compound": "ACTH (1-24): fragment of ACTH, amino acids from the N-terminus 1 to 24", "values": [
      {"measurement": "cell proliferation rate", "setting": "[1]; [4]", "result": "equivalent to that in the case of 0.3% FCS or 10% CM"},
      {"measurement": "formation rate of undifferentiated cell colonies", "setting": "[1]; [4]", "result": "equivalent to that in the case of 0.3% FCS or 10% CM"},
      {"measurement": "relative potency of the colony-forming capability", "setting": "[1]", "result": "most potent capability among the fragments having a capability"},
      {"measurement": "formation of the colony of undifferentiated cells", "setting": "[1]; final concentration of 0.1 μM", "result": "showed the formation of the colony of undifferentiated cells"},
      {"measurement": "capability to form a colony of undifferentiated cells", "setting": "[1]", "result": "showed to have the capability"}
    ]},
    {"compound": "pertussis toxin", "values": [
      {"measurement": "effect of ACTH on colony formation", "setting": "[1]; [5]", "result": "the effect of ACTH was inhibited"},
      {"measurement": "size of the colonies of undifferentiated cells", "setting": "[1]; [5]", "result": "drastically decreased"}
    ]},
    {"compound": "Nc1ncnc2c1ncn2C1CCCO1", "note": "(stereo not drawn) [SQ22536, 9-(tetrahydro-2-furanyl)adenine]", "values": [
      {"measurement": "formation of colonies of undifferentiated cells", "setting": "[1]; [6]", "result": "no formation of colonies of undifferentiated cells was unexpectedly inhibited"},
      {"measurement": "size of individual colonies", "setting": "[1]; [6]", "result": "significantly increased"},
      {"measurement": "average number of colonies of undifferentiated cells", "setting": "[1]; SQ22536 100 μM alone (no ACTH) in LIF + 2-ME + KSR medium", "result": "nine"}
    ]},
    {"compound": "C[C@H]1O[C@@H](n2cnc3c(N)ncnc32)C[C@@H]1O", "note": "[2′,5′-dideoxyadenosine]", "values": [
      {"measurement": "average number of colonies of undifferentiated cells", "setting": "[1]; 2′,5′-dideoxyadenosine 500 μM in LIF + 2-ME + KSR medium", "result": "eight"}
    ]},
    {"compound": "ACTH (18-39): fragment of ACTH, amino acids 18 to 39 (RPVKVYPNGAEDESAEAFPLEF; Corticotropin; UniProt P01189 155-176, looked up, fragment)", "values": [
      {"measurement": "capability to form a colony of undifferentiated cells", "setting": "[1]", "result": "showed to have no capability"}
    ]},
    {"compound": "adrenocorticotropic hormone (SYSMEHFRWGKPVGKKRRPVKVYPNGAEDESAEAFPLEF; Corticotropin; UniProt P01189 138-176, looked up) [ACTH, peptide hormone composed of 39 amino acid residues (ACTH (1-39))]", "values": [
      {"measurement": "chimeric mice with an ES cell contribution ratio of 70% or more (hair color)", "setting": "[2]", "result": 17, "unit": "litters"},
      {"measurement": "contribution of the ES cells to the germ cell line (inbreeding)", "setting": "[2]", "result": "the inbreeding showed the contribution of the ES cells to the germ cell line"},
      {"measurement": "female litters among the 17 chimeric litters", "setting": "[2]", "result": 14, "unit": "litters"},
      {"measurement": "litters survived three weeks or more after birth", "setting": "[2]", "result": 30, "unit": "litters"},
      {"measurement": "litters produced from 100 transplanted embryos", "setting": "[2]; subcultured twice, injected into blastocyst", "result": 33, "unit": "litters"},
      {"measurement": "inner cells that initiated proliferation and finally established ES cell lines", "setting": "[3]", "result": "at least two"},
      {"measurement": "relative potency of the colony-forming capability", "setting": "[1]", "result": "the capability at the lowest concentration among the candidate peptides"},
      {"measurement": "capability to form a colony of undifferentiated cells", "setting": "[1]; listed as ACTH (1-39)", "result": "showed to have the capability"},
      {"measurement": "capability to form a colony of undifferentiated cells", "setting": "[1]; listed as adrenocorticotropic hormone", "result": "formation of colonies of undifferentiated ES cells having the apparent morphology was observed"}
    ]}
  ]
}
